Reference: paper PMC10010161 (RSC Advances, 2023)
Where a SMILES comes first, the peptide text is derived from it.

Assays:
Horizon-LBA = type: in vitro ADME; conditions: DOPC; for relative permeability compared with CsA (in words): 2 h; for degree of decrease of permeability coefficient relative to 1: 1.5 h
Caco-2 = Caco-2 assay; cited from earlier work
[1] = PAMPA; cited from earlier work

CC[C@@H]1NC(=O)[C@H](C)N(C)C(=O)[C@H](C(C)C)N(C)C(=O)[C@H](CC(C)C)N(C)C(=O)[C@H](CC(C)C)N(C)C(=O)[C@@H](C)NC(=O)[C@H](C)NC(=O)[C@H](CC(C)C)N(C)C(=O)[C@H](C(C)C)NC(=O)[C@H](CC(C)C)N(C)C(=O)CN(C)C1=O [compound 1]
relative permeability compared with CsA (in words) (Horizon-LBA): higher permeability than CsA

CC[C@@H]1NC(=O)[C@H](CC(C)C)N(C)C(=O)[C@H](C(C)C)N(C)C(=O)[C@H](CC(C)C)N(C)C(=O)[C@H](CC(C)C)N(C)C(=O)[C@@H](C)NC(=O)[C@H](C)NC(=O)[C@H](CC(C)C)N(C)C(=O)[C@H](C(C)C)NC(=O)[C@H](CC(C)C)N(C)C(=O)CN(C)C1=O [compound 2]
relative permeability compared with CsA (in words) (Horizon-LBA): significant differences in the relative permeability of 2 and 3 from CsA were not observed

CC[C@@H]1NC(=O)[C@H]([C@@H](C)O)N(C)C(=O)[C@H](C(C)C)N(C)C(=O)[C@H](CC(C)C)N(C)C(=O)[C@H](CC(C)C)N(C)C(=O)[C@@H](C)NC(=O)[C@H](C)NC(=O)[C@H](CC(C)C)N(C)C(=O)[C@H](C(C)C)NC(=O)[C@H](CC(C)C)N(C)C(=O)CN(C)C1=O [compound 3]
relative permeability compared with CsA (in words) (Horizon-LBA): significant differences in the relative permeability of 2 and 3 from CsA were not observed

CC[C@@H]1NC(=O)[C@H](C)N(C)C(=O)[C@H](C(C)C)N(C)C(=O)[C@H](CC(C)C)N(C)C(=O)[C@H](CC(C)C)N(C)C(=O)[C@@H](C)NC(=O)[C@H](C)NC(=O)[C@H](CC(C)C)N(C)C(=O)[C@H](C(C)C)NC(=O)[C@H](C)N(C)C(=O)CN(C)C1=O [compound 5] (HELM PEPTIDE1{A.[dA].[meL].[meL].[meV].[meA].[Abu].[Sar].[meA].V.[meL]}$PEPTIDE1,PEPTIDE1,1:R1-11:R2$$$V2.0)
degree of decrease of permeability coefficient relative to 1 (Horizon-LBA): less than 50%

CC[C@@H]1NC(=O)[C@H](C)N(C)C(=O)[C@H](C(C)C)N(C)C(=O)[C@H](CC(C)C)N(C)C(=O)[C@H](C)N(C)C(=O)[C@@H](C)NC(=O)[C@H](C)NC(=O)[C@H](CC(C)C)N(C)C(=O)[C@H](C(C)C)NC(=O)[C@H](CC(C)C)N(C)C(=O)CN(C)C1=O [compound 8] (HELM PEPTIDE1{A.[dA].[meA].[meL].[meV].[meA].[Abu].[Sar].[meL].V.[meL]}$PEPTIDE1,PEPTIDE1,1:R1-11:R2$$$V2.0)
degree of decrease of permeability coefficient relative to 1 (Horizon-LBA): less than 50%

cyclosporin O [CsO]
permeability compared with CsA (in words) (Caco-2): lower permeability of CsO than CsA | permeability compared with CsA (in words) [1]: lower permeability of CsO than CsA
